Measurements as given in patent publication US4956461A, “Desamino-aminopterin and -methotrexate” (priority 1989, dated 1990).
Read-outs that look alike come from different tables or passages of the source.

Legend:
WI-L2 cells = assay: Growth inhibition of cultured human WI-L2 tumor cells; type: cell-based
carboxypeptidase G1 = assay: Glutamate hydrolysis by carboxypeptidase G1 (HPLC); type: biochemical; conditions: for disappearance of starting material (glutamate hydrolysis): room temperature, 1M NaOAc, ZnCl2, in less than 15 min
L1210 cells [1] = assay: Growth inhibition of cultured murine L1210 tumor cells; type: cell-based
[2] = Stability in solution (base, pH 7.4 buffer, NH4HCO3 eluates); type: physicochemical; conditions: for time stable in pH 7.4 phosphate buffer / half-life: room temperature, pH 7.4 phosphate buffer; for half-life: read-out: t1/2 (UV changes suggestive of pyrimidine ring cleavage) (converted); for stability of 3% NH4HCO3 eluates: overnight in the refrigerator
From the text: Critically important to the successful purification of the end products of Examples 3 and 4 on diethylamino-ethylcellulose was that the fractions were freeze dried as soon as possible after collection.

L1210 cells [3] = assay: Reversal test: effect of thymidine and hypoxanthine on growth of L1210 cells in presence of compound; type: cell-based, murine; conditions: Mus musculus
Method: Thymidine (dThd) and hypoxanthine (Hx) were added at concentrations of 10 μM and 100 μM, respectively.

[4] = molecular target: T1, dihydrofolate reductase (DHFR) (Homo sapiens, UniProt P00374); assay: Inhibition of purified dihydrofolate reductase (DHFR) from human leukemic lymphoblasts (WI-L2 cells); type: biochemical
T1 construct: endogenous in cells; host or cells: MTX-resistant WI-L2 human leukemic lymphoblasts
T1 sequence (P00374 1-187): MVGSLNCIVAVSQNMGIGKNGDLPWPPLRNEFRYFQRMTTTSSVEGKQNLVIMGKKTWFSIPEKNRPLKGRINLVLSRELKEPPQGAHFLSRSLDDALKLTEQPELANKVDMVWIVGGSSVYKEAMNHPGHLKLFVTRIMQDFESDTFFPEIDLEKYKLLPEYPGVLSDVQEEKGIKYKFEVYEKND
From the text: DHFR was isolated from MTXresistant WIL2 cells and purified by affinity

[5] = tested on: DHFR, threonine residue replaced by valine; conditions: threonine to valine mutant; cited from earlier work
[6] = tested on: E. coli dihydrofolate reductase (DHFR), aspartic acid replaced with serine; conditions: cited from earlier work
[7] = WIL2, read-out: Cells IC50, WI-L2
[8] = Mus musculus, L1210, read-out: Cells IC50, L1210
[9] = Mus musculus, L1210, read-out: IC50, growth of cultured tumor cells
[10] = WIL2, read-out: IC50, growth of cultured tumor cells
[11] = + 10 μM thymidine and 100 μM hypoxanthine, read-out: IC50, + dThd and Hx
[12] = + 10 μM thymidine, read-out: IC50, + dThd
[13] = + 100 μM hypoxanthine, read-out: IC50, + Hx
[14] = read-out: IC50, standard medium

Nc1nc(N)c2nc(CNc3ccc(C(=O)N[C@@H](CCC(=O)O)C(=O)O)cc3)cnc2n1 [AMT, aminopterin]
IC50 (WI-L2 cells; [7]): 7.1 nM

CN(Cc1cnc2nc(N)nc(N)c2n1)c1ccc(C(=O)N[C@H](CCC(=O)O)C(=O)O)cc1 [D MTX, reference compound]
cleavage by carboxypeptidase G1 (carboxypeptidase G1; identical conditions): resistant

Nc1ncnc2ncc(CNc3ccc(C(=O)N[C@@H](CCC(=O)O)C(=O)O)cc3)nc12 [Example 1, 2-desamino-aminopterin]
IC50 (L1210 cells [1]; [8]): 82 nM | IC50 (L1210 cells [1]; [9]): 30 to 80 nM | IC50 (WI-L2 cells; [7]): 81 nM | IC50 (WI-L2 cells; [10]): 30 to 80 nM | stability in 0.1 N NaOH by HPLC [2]: rapid appearance of new peaks indicating a chemical reaction | time stable in pH 7.4 phosphate buffer [2]: at least 24 h | half-life [2]: ~72 h | IC50 (L1210 cells [3]; [11]): > 100000 nM | IC50 (L1210 cells [3]; [12]): 160 nM | IC50 (L1210 cells [3]; [13]): 260 nM | IC50 (L1210 cells [3]; [14]): 82 nM | disappearance of starting material (glutamate hydrolysis) (carboxypeptidase G1): > 95%

Cc1nc(N)c2nc(CNc3ccc(C(=O)N[C@@H](CCC(=O)O)C(=O)O)cc3)cnc2n1 [Example 2, 2-desamino-2-methyl-aminopterin]
IC50 (L1210 cells [1]; [8]): 42 nM | IC50 (L1210 cells [1]; [9]): 30 to 80 nM | IC50 (WI-L2 cells; [7]): 28 nM | IC50 (WI-L2 cells; [10]): 30 to 80 nM | stability in 0.1 N NaOH by HPLC [2]: rapid appearance of new peaks indicating a chemical reaction | time stable in pH 7.4 phosphate buffer [2]: at least 24 h | half-life [2]: ~72 h | IC50 (L1210 cells [3]; [11]): > 100000 nM | IC50 (L1210 cells [3]; [12]): 130 nM | IC50 (L1210 cells [3]; [13]): 160 nM | IC50 (L1210 cells [3]; [14]): 42 nM | IC50 [4]: > 50000 nM | disappearance of starting material (glutamate hydrolysis) (carboxypeptidase G1): > 95%

CN(Cc1cnc2ncnc(N)c2n1)c1ccc(C(=O)N[C@@H](CCC(=O)O)C(=O)O)cc1 [Example 3]
stability of 3% NH4HCO3 eluates [2]: extensive decomposition occurred | IC50 [4]: 5800 nM

Cc1nc(N)c2nc(CN(C)c3ccc(C(=O)N[C@@H](CCC(=O)O)C(=O)O)cc3)cnc2n1 [Example 4]
stability of 3% NH4HCO3 eluates [2]: extensive decomposition occurred | IC50 ([4]; purified DHFR from MTX-resistant WI-L2 cells, read-out: DHFR IC50): > 20000 nM

CN(Cc1cnc2nc(N)nc(N)c2n1)c1ccc(C(=O)N[C@@H](CCC(=O)O)C(=O)O)cc1 [MTX, methotrexate]
decrease in the KD for MTX [5]: 25 fold | increase in the KD for MTX binding ([6]; aspartic acid to serine mutant of E. coli DHFR, equilibrium dialysis): 3000 fold | decrease in the binding energy ([6]; aspartic acid to serine mutant): 4.4 kcal/mol | IC50 (L1210 cells [1]; Mus musculus, L1210; read-out: Cells IC50, L1210): 9 nM | IC50 (L1210 cells [1]; Mus musculus; one figure stated for WI-L2 and L1210 together; here L1210; read-out: IC50, growth of cultured tumor cells): 10 nM | IC50 (WI-L2 cells; WIL2, one figure stated for WI-L2 and L1210 together, here WI-L2, read-out: IC50, growth of cultured tumor cells): 10 nM | IC50 (WI-L2 cells; [7]): 13 nM
